According to patent publication US5688773A, “Method of selectively destroying neoplastic cells” (priority 1994, dated 1997):
pIC50: −log10 of the molar value. Values joined by “and” are separate entries in the source; they are usually repeats but may differ in a detail not shown here. Equal values may be shown once. Read-outs that look alike come from different tables or passages of the source.

Experiments:
[1] = system: C6 glioma plus CRELacZ cells; experiment: Brain tumor model, fibroblast graft then intrathecal/intratumoral CPA; assay type: in vivo, athymic mice
Experimental: For intracerebral injections, mice were anesthetized with an intraperitoneal injection of Ketamin (100 mg per kg body weight) (Parke Davis, NJ) and Xylazine (20 mg per kg body weight) (Mobay Corp., KS). Surgical procedures were performed in a sterile fashion. After immobilizing the rodent in stereotactic apparatus (Kopf), a small incision was made in the skin overlying the skull. C6 glioma cells (10^3 cells in 2 μl) were stereotactically inoculated approximately 0.5 mm frontal and 0.5 mm right lateral to the bregma using a Hamilton syringe. The inoculation period was 5 minutes, with 2 minutes allowed for needle retraction. Three days later, the same burrhole was employed for the stereotactic grafting of 5×10^6 CRELacZ cells (cell line kindly provided by Dr. R. Mulligan, MIT) or 5×10^6 R450-2 cells in 25 μl of DMEM. Four, eight, and eleven days after this last injection, CPA (0.3 mg in 5 μl) was administered stereotactically, through the same skull opening, into the tumor and meningeal space of mice from both CRELacZ and R450-2 groups. Injections were carried out stereotactically over a period of ten minutes, with five minutes allowed for needle retraction. Animals were sacrificed, ten days after injection of the last dose of prodrug, by perfusing through the left ventricle approximately 3-5 mL of 100 mM sodium phosphate in 0.9% sodium chloride, pH 7.3, followed by 4% paraformaldehyde in 100 mM sodium phosphate, pH 7.3. Brains were carefully dissected from the skull and jaws of the animals, prior to placement overnight in 4% paraformaldehyde in 100 mM sodium phosphate, pH 7.3. For cryopreservation, brains were placed in 20% glycerol/10% dimethylsulfoxide in 100 mM sodium phosphate, pH 7.3, and then cut in 50 micron sections with a sledge microtome. Every sixth section was mounted onto gelatin-coated slides and stained with cresyl violet. To calculate brain tumor volumes, a computerized-image analyzer was used to scan tumor areas on each section. This analysis was performed in a blind fashion. Manual contouring was performed to distinguish tumor from normal brain cysts, or processing artifacts. Tumor volumes were obtained by multiplying the average tumor area from all sections in a brain by the distance (0.3 mm) between and including each section.

C6 cells = experiment: Cell proliferation assay; assay type: cell-based, rat; conditions: 0.5 mM, four days
Experimental: Cell proliferation assays: For cell proliferation assays, cells (2×10^5 per dish, unless otherwise noted) were plated onto 10 cm dishes. […] Incubations were continued for four days and cell numbers were assayed using a Coulter counter (Coulter Electronics Inc.), after harvesting in trypsinEDTA.

[2] = system: C6 cells co-cultured with C6-P450 cells across a filter; experiment: Secretory effect assay (insert system); assay type: cell-based; conditions: Rattus norvegicus
Experimental: Secretory effect assay: To assess the effect of conditioned medium, cells were co-cultured in dishes using the "insert" system (Falcon). This consists of tissue culture dishes (diameter=3.5 cm), which contain a micropore membrane (pore diameter=0.45 μm) that physically separates cell populations plated into the upper and lower chambers but permits the exchange of components in the medium. C6 cells (3.4×10^5 cells) were plated into the bottom chamber, while C6-P450 (3.4×10^5 cells) or C6-Neo cells (3.4×10^5 cells) were plated into the upper chamber (on top of the filter) in a total volume of 5 mL of medium. After an overnight incubation, 0.5 mM CPA was added to this medium. Four days later, the membrane on which the C6-P450 or C6-Neo cells were growing was removed and then the number of C6 glioma cells in the lower chamber was determined by counting with a Coulter apparatus. Surviving C6 cells were then replated at a density of 2×10^5 cells per 10 cm dish without CPA. Nine days later, these cells were trypsinized and counted using the Coulter apparatus.

[3] = system: parental 9L cells co-cultured with 9L-ZP cells; experiment: Co-culture experiments with culture inserts; assay type: cell-based, rat; conditions: 1 mM cyclophosphamide, 5 days, no cell contact
Experimental: Co-culture Experiments: Parental 9L cells were plated in the bottom wells of culture plates (Falcon 3502), and cytochrome P450 2B1-negative or cytochrome P450 2B1-positive cells were plated into 25 mm cell culture inserts (0.45 μm pore size, Falcon 3090). Culture media were removed 18-24 hours later by aspiration. Culture medium without drug (1.0 mL) was added to the bottom well, and 1.0 mL medium containing drug was added to the upper cell culture insert. Cell numbers were determined 5 days later, as described above.

[4] = system: cytochrome P450 2B1-positive cells (9L-ZP and L450-2); experiment: cells; conditions: Rattus norvegicus, 120 h
[5] = system: C450-8 (C6-derived clone, cytochrome P450 2B1); experiment: Growth in the presence of 500 μM cyclophosphamide; conditions: 500 μM CPA, four days
[6] = system: R450-2 (ΨCRE-derived clone, cytochrome P450 2B1); experiment: Growth in the presence of 500 μM cyclophosphamide; conditions: 500 μM CPA, four days
9L-ZP cells = experiment: Drug sensitivity of cultured 9L cells with or without metyrapone; conditions: Rattus norvegicus, 120 h
[7] = system: C6 cells exposed to CM from C6-P450; experiment: C6 colony formation after conditioned medium from drug-exposed cells; conditions: for Colony numbers: colonies six days later
[8] = system: C6BBAG cells co-cultured with C6VIKWT cells; experiment: Delayed co-culture, ganciclovir sensitivity of recipient colonies; assay type: cell-based; conditions: Rattus norvegicus, ratio 1:2, read-out: ganciclovir concentration at which 50% of cells grew
Experimental: Donor C6VIK or C6VIKWT cells were then added to the cultures at a ratio of 1:2 (5×10^4 recipient cells: 10^5 donor cells). Control cultures consisted of C6BAG or C6BBAG cells alone, or C6BA6 or C6BBAG cells co-plated with "donor" C6BU1 or C6BWT cells, after delay, as above. After 10 days, ganciclovir was added at varying concentrations (0-300 μM) and cells were incubated for another 9-12 days with the drug. Cells were then fixed with 0.5% glutaraldehyde and stained histochemically for beta-galactosidase activity, as described (Price et al., Proc. Natl. Acad. Sci. USA 84:1141-1145 (1987)), and colonies were counted.

Question: For `O=P1(N(CCCl)CCCl)NCCCO1` (centres unmarked) [cyclophosphamide], which “animals with extensive and friable meningeal tumor” value ([1]; CPA 0.3 mg on days 4, 8, 11 after graft, sacrifice ten days after last dose) is on record?
Answer: Its value is 8/8.

Question: And the “Tumor necrosis of parenchymal tumors” value ([1]; histopathology of six brains)?
Answer: Its value is “essentially no tumor necrosis”.

Question: What about the “Volumes of parenchymal brain tumors” value ([1]; individual animals, after cyclophosphamide administration) of the same compound?
Answer: Its value is 47.5 mm^3 and 51.5 mm^3 and 54.7 mm^3 and 62.4 mm^3 and 72.6 mm^3 and 85.1 mm^3.

Question: What about the “Effect on cell proliferation” value (C6 cells) of the same compound?
Answer: The value was “had no effect”.

Question: What about the “Cell proliferation assay, number of cells” value (C6 cells; Table V panel A) of the same compound?
Answer: Its value is 21.10±1.37 ×10^6.

Question: And the inhibition at 500 µM ([2]; C6, 96 h, 0.5 mM CPA, 1:1 ratio, four days, read-out: decrease in the number of C6 cells)?
Answer: Its inhibition at 500 µM is about 50%.

Question: What about the inhibition at 500 µM ([2]; C6, 216 h, replated without CPA, nine days, read-out: decrease in C6 cell number after trypsinization and replating) of the same compound?
Answer: Its inhibition at 500 µM is about 90%.

Question: What about the “Killing of both cell populations” value [3] of the same compound?
Answer: The value was “killed”.

Question: What about the pIC50 [4] of the same compound?
Answer: The pIC50 was about 4.15.

Question: And the Cell destruction [5]?
Answer: The Cell destruction was “destroyed completely”.

Question: What about the Cell destruction [6] of the same compound?
Answer: The Cell destruction was “destroyed completely”.

Question: What about the cytotoxicity at 1000 µM (9L-ZP cells) of the same compound?
Answer: Its cytotoxicity at 1000 µM is over 90%.

Question: And the Colony numbers ([7]; CM after 0.5 h of 0.5 mM CPA)?
Answer: The Colony numbers was 263 ± 6.

Question: What about the Colony numbers ([7]; CM after 1.5 h of 0.5 mM CPA) of the same compound?
Answer: Its Colony numbers is 267 ± 9.

Question: What about the Colony numbers ([7]; CM after 3 h of 0.5 mM CPA) of the same compound?
Answer: The Colony numbers was 144 ± 19.

Question: What about the Colony numbers ([7]; CM after 6 h of 0.5 mM CPA) of the same compound?
Answer: Its Colony numbers is 94 ± 8.

Question: And the Colony numbers ([7]; CM after 10 h of 0.5 mM CPA)?
Answer: The Colony numbers was 12 ± 0.3.

Question: What about the Colony numbers ([7]; CM after 24 h of 0.5 mM CPA) of the same compound?
Answer: The Colony numbers was 0.

Question: What about the Colony numbers ([7]; CM after 32 h of 0.5 mM CPA) of the same compound?
Answer: Its Colony numbers is 0.

Question: And the Colony numbers ([7]; CM after 48 h of 0.5 mM CPA)?
Answer: The Colony numbers was 0.

Question: And the Colony numbers ([7]; CM after 72 h of 0.5 mM CPA)?
Answer: The Colony numbers was 0.

Question: And the Colony numbers ([7]; CM after 96 h of 0.5 mM CPA)?
Answer: Its Colony numbers is 0.

Question: What about the “Inhibition of C6 cell colony formation” value ([7]; CM after exposure to CPA for 24 hours) of the same compound?
Answer: Its value is “Complete inhibition”.

Question: And the “Toxicity of conditioned medium to C6 cell growth / colony formation” value ([7]; CM from treated C6-P450 cells, nine days)?
Answer: The value was “highly toxic”.

Question: What about the “Secretion effect, C6 colony number” value ([7]; Table V panel C, CM from treated C6-P450 cultures) of the same compound?
Answer: The value was 0.

Question: With `Nc1nc(O)c2ncn(COC(CO)CO)c2n1` [ganciclovir] as the compound, how does the pIC50 [8] read?
Answer: The pIC50 was 4.52.
